Measured values taken from patent US11912660B2, “S6K1 protein kinase inhibitors as cancer therapeutics” (Xavier University of Louisiana, priority 2020, dated 2024).
Read-outs that look alike come from different tables or passages of the source.

Columns and labels:
RPS6K1 [1] = target: T1, RPS6K1 (Homo sapiens (Human), UniProt P23443); experiment: High-throughput screening and IC50 determination for inhibition of RPS6K1 (FRET based assay by ThermoFisher); format: biochemical; conditions: dose response curve
T1 sequence (P23443 whole entry): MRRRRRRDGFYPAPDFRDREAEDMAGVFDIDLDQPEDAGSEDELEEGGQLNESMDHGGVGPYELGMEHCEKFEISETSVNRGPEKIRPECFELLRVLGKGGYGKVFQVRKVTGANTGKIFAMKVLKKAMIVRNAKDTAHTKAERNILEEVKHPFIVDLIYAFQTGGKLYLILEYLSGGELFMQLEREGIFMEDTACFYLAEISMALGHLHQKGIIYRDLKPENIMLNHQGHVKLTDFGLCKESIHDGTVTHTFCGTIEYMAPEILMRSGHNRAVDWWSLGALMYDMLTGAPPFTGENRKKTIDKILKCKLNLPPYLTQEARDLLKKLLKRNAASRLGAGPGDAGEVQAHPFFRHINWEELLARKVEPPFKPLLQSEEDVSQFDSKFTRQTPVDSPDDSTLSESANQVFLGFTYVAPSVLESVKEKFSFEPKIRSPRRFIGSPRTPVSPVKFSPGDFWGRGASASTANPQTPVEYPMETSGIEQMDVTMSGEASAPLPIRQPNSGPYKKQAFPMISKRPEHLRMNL
From the text: These three compounds were then subjected to IC50 value determination (dose response curve) using the same FRET based assay by ThermoFisher (Table 5).

RPS6K1 [2] = target: T1, RPS6K1; experiment: as above; format: biochemical; conditions: table head prints 10 µM; text says 10 μM concentration
[3] = test system: HER2 positive breast cancer cell line SKBR3; experiment: MTT assay growth inhibition; format: cell-based; conditions: for IC50: Homo sapiens; for growth inhibition: SKBR3, MTT, FIG. 1A
From the text: (§1) Cell viability assays used the methods outlined in an earlier publication: Identification of New Mono/Dihydroxynaphthoquinone as Lead Agents that Inhibit the Growth of Refractive and Triple-negative Breast Cancer Cell lines. Schroeder, R.; Sfondouris, M.; Goyal, N.; Komati, R.; Weerathunga, A.; Gettridge, C.; Stevens, C. L. K.; Jones, F. E.; Sridhar, J. ACS Omega, 2019 Jun 19. 4(6):10610-10619.
(§2) RPS6K1 is known to play a critical role in several cancers including HER2 positive breast cancer, ER positive breast cancer, prostate cancer and small cell lung cancer. To verify whether RPS6K1 inhibitors of the instant disclosure could inhibit growth of these types of cancers, MTT assays were performed using the HER2 positive breast cancer cell line SKBR3, ER positive breast cancer cell line MCF7, and the prostate cancer cell line DU-145. The MTT assay is a colorimetric assay for assessing cell metabolic activity. NAD(P)H-dependent cellular oxidoreductase enzymes may, under defined conditions, reflect the number of viable cells present. These enzymes are capable of reducing the tetrazolium dye MTT 3-(4,5-dimethylthiazol-2-yl)-2,5-diphenyltetrazolium bromide to its insoluble formazan, which has a purple color.

[4] = test system: ER positive breast cancer cell line MCF7; experiment: MTT assay growth inhibition; format: cell-based; conditions: FIG. 1B
From the text: as §1, §2

[5] = test system: prostate cancer cell line DU-145; experiment: MTT assay growth inhibition; format: cell-based; conditions: DU-145, MTT, FIG. 1C
From the text: as §1, §2

[6] = SK-BR-3, SKBR3 breast cancer cell line, MTT, read-out: IC50 values of growth inhibition

IC50 (RPS6K1 [1]) [µM] | RPS6K1% inhibition at 10 µM compound concentration (RPS6K1 [2]) [%] | IC50 [3, 6] [µM] | Compound | IC50 ([3]; SK-BR-3, read-out: IC50 values of growth inhibition) [µM] | growth inhibition [3] | growth inhibition [4] | growth inhibition [5]
3.48 | 71 | 3.3 | Nc1cc(NC(=O)c2ccccc2)cc2c1C(=O)NC2=O [RJ-19] |  | showed inhibition | not as effective | 
> 2.78 | 86 | 1.9 | Nc1cc(NC(=O)c2ccccc2Br)cc2c1C(=O)NC2=O [RJ-22] |  | excellent growth inhibition | excellent growth inhibition | excellent growth inhibition

Compound | IC50 (RPS6K1 [1]) [µM] | RPS6K1% inhibition at 10 µM compound concentration (RPS6K1 [2]) [%] | IC50 [3, 6] [µM] | IC50 ([3]; SK-BR-3, read-out: IC50 values of growth inhibition) [µM] | growth inhibition [3] | growth inhibition [4] | growth inhibition [5]
Nc1cc(NC(=O)c2cc([N+](=O)[O-])cc([N+](=O)[O-])c2)cc2c1C(=O)NC2=O [RJ-28] | 2.56 | 79 |  | 4.7 | excellent growth inhibition | excellent growth inhibition | excellent growth inhibition
